Measurements: patent US6667341B2, “Delta dicarbonyl compounds and methods for using the same” (Beacon Laboratories, Inc., priority 2000, dated 2003)

Tests used:
[1] = test system: PC-3 prostate cancer cells; test: EDR anti-proliferation assay (3H-thymidine incorporation, soft agar), PC-3; type: cell-based; conditions: PC-3 cell line; five days incubation; 3H-TdR incorporation; read-out: PC-3 or MCF-7* IC50
Experimental: (§1) Compounds prepared according to Examples 1-7 were tested for anti-proliferation against PC-3 prostate or MCF-7 breast cancer cells. The specific compounds tested include N-methyl-2-(2-methoxyethoxy)acetamidomethyl butyrate; N-methylbutyramidomethyl cinnamate; N-methylcinnamamidomethyl butyrate; cinnamoyloxymethyl thiobutyrate; butyroyloxymethyl thiocinnamate; bis(thiobutyl)methane; 3-oxohexyl cinnamate; and propionoyloxymethyl propionate. Butyric acid and trichostatin, a potent HDAC inhibitor, were used as reference compounds. Both compounds were purchased from Sigma-Aldrich, Milwaukee, Wis.
The PC-3 cell line was maintained in RPMI supplemented with 10% fetal calf serum and antibiotics. The EDR assay was performed as described by Kern and Weisenthal in “Highly Specific Prediction of Antineoplastic Drug Resistance With An In Vitro Assay Using Suprapharmacologic Drug Exposures,” J. Nat. Cancer Inst., 82:582-588 (1990); and Fruehauf and Bosanquet, “In vitro Determination of Drug Response: A Discussion of Clinical Applications,” PPO Updates 7(12):1-16 (1993). Cells were suspended in 0.12% soft agar in complete medium and plated (2,000 cells per well, as determined by preliminary experiments) in different drug concentrations onto a 0.4% agarose underlayer in 24-well plates. Plating cells on agarose underlayers supports the proliferation only of the transformed cells, ensuring that the growth signal stems from the malignant component of the tumor.
All compounds were dissolved in DMSO to 200× stock solutions. Stock solutions were diluted to 20× working solutions using the tissue culture medium, serially diluted and added to the 24-well plates. The concentration range was 0.001 μM to 0.3 μM for trichostatin and 10 μM-1,000 μM for the other compounds. No significant changes in pH of the culture medium were observed under the above conditions. Diluent control wells contained PC3 cells treated with DMSO, at the dilutions used for appropriate drug treatment. All experimental points were represented by two separate wells (duplicates). Positive controls were determined using at least two wells treated with an extremely high dose of cisplatin, an anti-cancer agent. Four wells containing tumor cells that were not treated with drugs served as negative controls in each experiment.
Cells were incubated with drugs under standard culture conditions for five days. Cultures were pulsed with tritiated thymidine (^3H-TdR, New Life Science Products, Boston, Mass.) at 5 μCi per well for the last 48 hours of the culture period.
(§2) Cell culture plates were then heated to 90° C. to liquefy the agarose, and cells were harvested onto glass fiber filters, which were then placed into counting vials containing liquid scintillation fluid. The radioactivity trapped on the filters was counted with a Beckman scintillation counter. The fraction of surviving cells was determined by comparing ^3H-TdR incorporation in treated (experimental points) and untreated (negative control) wells. All drug concentrations are presented as μM, allowing for normalization of drug response curves and direct comparison of the effects of the drugs. Microsoft Excel was used to organize the raw data on EDR experiments, and the SigmaPlot program was utilized to generate drug response curves. All drug response curves were as approximated as sigmoidal equations (characteristic for typical drug response curves) to fit the data. IC50 values were determined using the approximated sigmoidal curves and expressed as μM. Table 12 provides the PC-3 or MCF-7 IC50 data for each of the compounds tested.

[2] = test system: MCF-7 breast cancer cells; test: Anti-proliferation assay, MCF-7; type: cell-based; conditions: Homo sapiens, MCF7; value marked *: obtained from MCF-7 cell line; read-out: PC-3 or MCF-7* IC50
Experimental: as §1
as §2, with “Microsoft Excel was used to organize the raw data on EDR experiments, and the SigmaPlot program was utilized to generate drug response curves. All drug response curves were as approximated as sigmoidal equations (characteristic for typical drug response curves) to fit the data.” left out, “Table 12 provides the PC-3 or MCF-7 IC50 data for each of the compounds tested.” left out

IC50 [1] [µM] | IC50 [2] [µM] | Compound
36 | – | CCCC(=O)OCN(C)C(=O)COCCOC [N-Methyl-2-(2-methoxyethoxy)acetamidomethyl Butyrate]
> 2000 | – | CCCC(=O)O [butyric acid, reference compound]
0.005 | – | CC(/C=C/C(=O)NO)=C\[C@@H](C)C(=O)c1ccc(N(C)C)cc1 [trichostatin, reference compound]
20 | – | CCCC(=O)OCN(C)C(=O)C=Cc1ccccc1 [N-methylcinnamamidomethyl butyrate, N-Methylcinnamamidomethyl Butyrate]
100 | – | CCCC(=O)N(C)COC(=O)C=Cc1ccccc1 [N-methylbutyramidomethyl cinnamate, N-Methylbutyramidomethyl Cinnamate]
– | 50 | CCC(=O)OCOC(=S)CC [propionoyloxymethyl thiopropionate, Propionoyloxymethyl Thiopropionate]
30 | – | CCCC(=S)OCOC(=O)C=Cc1ccccc1 [cinnamoyloxymethyl thio-butyrate, Cinnamoyloxymethyl Thiobutyrate]
30 | – | CCCC(=O)OCOC(=S)C=Cc1ccccc1 [butyroyloxymethyl thiocinnamate, Butyroyloxymethyl Thiocinnamate]
40 | – | CCCC(=O)CCOC(=O)C=Cc1ccccc1 [3-oxohexyl cinnamate, 3-Oxohexyl Cinnamate]

Compound | IC50 [1] [µM] | IC50 [2] [µM]
CCCC(=O)SCSC(=O)CCC | 40 | –
